Experiments:
HeLa cells = experiment: Dye uptake flow cytometry MDR assay (MAF), HeLa cells; type: cell-based, human; settings: dye uptake protocol; for MAF value, Fumitremorgin C: probe with vs without fumitremorgin C; for MAF value, Probenecid: probe with vs without probenecid; for MAF value, Verapamil: probe with vs without verapamil
Protocol: (§1) Detailed protocol for the MDR assay is available in the Instruction Manual for eFluxx-ID® Green or Gold Multi-Drug Resistance Assay Kit (ENZO Life Sciences, Inc., Farmingdale, NY). Briefly, on the day of the assay, cells were collected, washed with PBS and incubated with or without MDR inhibitors in the presence of the eFluxx-ID® Green or Gold probes for 30 min at 37°C and analyzed immediately by flow cytometry. eFluxx-ID® Green or Gold probes are novel xanthene-based small molecule dyes developed for the detection of MDR activity in living cells. In order to exclude dead cells in the analyses, propidium iodide (PI) or 7-actinaminomycin D (7-AAD) solution was added to the cells during the last 5 min of incubation in some experiments.
(§2) To develop a minimal step assay procedure for the dye uptake protocol, three modifications of the protocol were investigated. One set of the cells was treated according to a general “no-wash” protocol (see Instruction Manual for the kit). In the second set of tubes, the reaction was stopped by rapid centrifugation (1 min) at relatively low speed (200×g). After washing with ice-cold PBS and discarding the supernatant, cells were re-suspended in 0.5 ml of ice-cold medium and kept on ice until flow cytometry analysis was performed. The third set of cells was simply spun down (1 min, 200×g) to remove the excess probe, resuspended in ice-cold medium and kept on ice until flow cytometry analysis was performed. eFluxx-ID® Green dye (ex/em 490/514 nm) fluorescence intensity was measured in the FL1/FITC (530/30 filter) channel, and eFluxx-ID® Gold dye (ex/em 530/555 nm) fluorescence intensity was monitored in the FL2/PE (585/42 filter) channel.
(§3) Experiments were performed using a FACS Calibur benchtop flow cytometer (BD Biosciences, San Jose, CA) equipped with a blue (488 nm) laser, and the signals were registered in the FITC (530/30 filter), PE (585/42 filter) and PerCP (670 LP filter) channels. eFluxx-ID® Green dye fluorescence was measured in the FL1/FITC channel, and eFluxx-ID® Gold dye fluorescence, in the FL2/PE channel. Data analysis was performed using FlowJo 8.8.2 software (Tree Star, Inc., Ashland, OR).
(§4) All of the experiments were performed at least three times. Results were expressed as mean ± S.E. Statistical comparisons were made using an unpaired two-tailed Student's t-test. A P value of <0.05 was considered significant. Flow cytometry data were analyzed by comparison of median fluorescence, by using Kolmogorov-Smirnov statistics (D-value) or by calculating MDR Activity Factor (MAF) values using the following formula: MAF = 100*((MFIinh−MFI0)/MFIinh), wherein MFIinh and MFI0 are the mean fluorescence intensity values measured in the presence and absence of inhibitor [7].

HL-60 cells = experiment: Dye uptake flow cytometry MDR assay (MAF), HL-60 cells; type: cell-based, human
Protocol: (§5) Detailed protocol for the MDR assay is available in the Instruction Manual for eFluxx-ID® Green or Gold Multi-Drug Resistance Assay Kit (ENZO Life Sciences, Inc., Farmingdale, NY). […] In order to exclude dead cells in the analyses, propidium iodide (PI) or 7-actinaminomycin D (7-AAD) solution was added to the cells during the last 5 min of incubation in some experiments. Experiments were performed using a FACS Calibur benchtop flow cytometer (BD Biosciences, San Jose, CA) equipped with a blue (488 nm) laser, and the signals were registered in the FITC (530/30 filter), PE (585/42 filter) and PerCP (670 LP filter) channels. eFluxx-ID® Green dye fluorescence was measured in the FL1/FITC channel, and eFluxx-ID® Gold dye fluorescence, in the FL2/PE channel. Data analysis was performed using FlowJo 8.8.2 software (Tree Star, Inc., Ashland, OR). All of the experiments were performed at least three times. Results were expressed as mean ± S.E. Statistical comparisons were made using an unpaired two-tailed Student's t-test. […] Additionally, HCT-8 cell line reported to overexpress both MDR1 and MRP transporters, [21] was tested. HCT-8, HCT-15, HepG2, HL-60 and HL-60/MX1 cells were grown on tissue culture dishes and on the day of assay were incubated with eFluxx-ID® Green and Gold probes with and without inhibitors according to the described dye uptake protocol (Materials and Methods) and analyzed by flow cytometry.

CHO K1 cells = experiment: Dye uptake flow cytometry MDR assay (MAF / D-values), CHO K1 cells; type: cell-based, hamster; settings: for D-values Post Inhibitor Treatment (compared to uninhibited cells), CsA / D-values Post Inhibitor Treatment (compared to uninhibited cells), FTC / D-values Post Inhibitor Treatment (compared to uninhibited cells), MK-571 / D-values Post Inhibitor Treatment (compared to uninhibited cells), Verapamil: CHO K1; for MAF value, Fumitremorgin C / MAF value, Probenecid / MAF value, Verapamil: CHO K1 cells, dye uptake protocol; for MAF value, Fumitremorgin C: probe with vs without fumitremorgin C; for MAF value, Probenecid: probe with vs without probenecid; for MAF value, Verapamil: probe with vs without verapamil
Protocol: as §1, §2, §3, §4

A549 cells = experiment: Dye uptake flow cytometry MDR assay (MAF / D-values), A549 cells; type: cell-based, human; settings: dye uptake protocol; for MAF value, Fumitremorgin C: probe with vs without fumitremorgin C; for MAF value, Probenecid: probe with vs without probenecid; for MAF value, Verapamil: probe with vs without verapamil
Protocol: as §1, §2, §3, §4

HL-60/MX1 cells = experiment: Dye uptake flow cytometry MDR assay (MAF), HL-60/MX1 cells; type: cell-based, human
Protocol: as §5

HCT-8 cells = experiment: Dye uptake flow cytometry MDR assay (MAF), HCT-8 cells; type: cell-based, human; settings: for MAF value, CsA: probe with vs without CsA; for MAF value, CsA / MAF value, Nov / MAF value, Ver: mean ± SEM; for MAF value, MK571: probe with vs without MK571, mean ± SEM; for MAF value, Nov: probe with vs without Nov; for MAF value, Ver: probe with vs without Ver
Protocol: as §5

HepG2 cells = experiment: Dye uptake flow cytometry MDR assay (MAF), HepG2 cells; type: cell-based, human
Protocol: as §5

HCT-15 cells = experiment: Dye uptake flow cytometry MDR assay (MAF), HCT-15 cells; type: cell-based, human
Protocol: as §5

[1] = probe with vs without CsA, mean ± SEM
[2] = probe with vs without MK571, mean ± SEM
[3] = probe with vs without Nov, mean ± SEM
[4] = probe with vs without Ver, mean ± SEM
[5] = dual probe treatment eFluxx-ID Gold + Pheophorbide A
[6] = dual probe treatment eFluxx-ID Green + Pheophorbide A
[7] = triple probe treatment CMFDA + eFluxx-ID Gold + Pheophorbide A
[8] = triple probe treatment DiOC2(3) + eFluxx-ID Gold + Pheophorbide A
[9] = dual probe treatment eFluxx-ID Gold + CMFDA
[10] = dual probe treatment eFluxx-ID Gold + DiOC2(3)

SMILES | MAF value, Fumitremorgin C (HeLa cells) | MAF value, Probenecid (HeLa cells) | MAF value, Verapamil (HeLa cells) | D-values Post Inhibitor Treatment (compared to uninhibited cells), CsA (CHO K1 cells; [7]) | D-values Post Inhibitor Treatment (compared to uninhibited cells), FTC (CHO K1 cells; [7]) | D-values Post Inhibitor Treatment (compared to uninhibited cells), MK-571 (CHO K1 cells; [7]) | D-values Post Inhibitor Treatment (compared to uninhibited cells), Verapamil (CHO K1 cells; [7]) | D-values Post Inhibitor Treatment (compared to uninhibited cells), CsA (CHO K1 cells; [8]) | D-values Post Inhibitor Treatment (compared to uninhibited cells), FTC (CHO K1 cells; [8]) | D-values Post Inhibitor Treatment (compared to uninhibited cells), MK-571 (CHO K1 cells; [8]) | D-values Post Inhibitor Treatment (compared to uninhibited cells), Verapamil (CHO K1 cells; [8]) | MAF value, Fumitremorgin C (CHO K1 cells) | MAF value, Probenecid (CHO K1 cells) | MAF value, Verapamil (CHO K1 cells) | MAF value, Fumitremorgin C (A549 cells) | MAF value, Probenecid (A549 cells) | MAF value, Verapamil (A549 cells) | MAF value, CsA (HCT-8 cells) | MAF value, MK571 (HCT-8 cells) | MAF value, Nov (HCT-8 cells) | also measured
C=Cc1c(C)c2cc3nc(c4c5[nH]c(cc6nc(cc1[nH]2)C(C)=C6CC)c(C)c5C(=O)[C@@H]4C(=O)OC)[C@@H](CCC(=O)O)[C@@H]3C [Pheophorbide A, pheophorbide A] | 5.8 | 0.5 | 0 | 0.20 | 0.27 | 0.09 | 0.18 | 0.4 | 0.41 | 0.13 | 0.17 | 22.3 | 8.4 | 0.7 | 36.0 | 14.2 | 4.0 |  |  |  | MAF value, CsA (HL-60 cells; [1]): 6.5±1.7; MAF value, MK571 (HL-60 cells; [2]): 7.6±1.6; MAF value, Nov (HL-60 cells; [3]): 8.5±1.4; MAF value, Ver (HL-60 cells; [4]): 6.8±0.6; D-values Post Inhibitor Treatment (compared to uninhibited cells), CsA (CHO K1 cells; [5]): 0.25; D-values Post Inhibitor Treatment (compared to uninhibited cells), FTC (CHO K1 cells; [5]): 0.34; D-values Post Inhibitor Treatment (compared to uninhibited cells), MK-571 (CHO K1 cells; [5]): 0.14; D-values Post Inhibitor Treatment (compared to uninhibited cells), Verapamil (CHO K1 cells; [5]): 0.11; D-values Post Inhibitor Treatment (compared to uninhibited cells), CsA (CHO K1 cells; [6]): 0.25; D-values Post Inhibitor Treatment (compared to uninhibited cells), FTC (CHO K1 cells; [6]): 0.33; D-values Post Inhibitor Treatment (compared to uninhibited cells), MK-571 (CHO K1 cells; [6]): 0.15; D-values Post Inhibitor Treatment (compared to uninhibited cells), Verapamil (CHO K1 cells; [6]): 0.14; MAF value, CsA (HL-60/MX1 cells; [1]): 22.5±3.0; MAF value, MK571 (HL-60/MX1 cells; [2]): 10.2±3.7; MAF value, Nov (HL-60/MX1 cells; [3]): 23.4±0.8; MAF value, Ver (HL-60/MX1 cells; [4]): 7.6±3.8
CC(=O)Oc1ccc2c(c1)Oc1cc(OC(C)=O)ccc1C21OC(=O)c2cc(CCl)ccc21 [CMFDA, chloromethylfluorescein diacetate] | 11.4 | 9.0 | 7.6 | 0.47 | 0.14 | 0.89 | 0.10 |  |  |  |  | 0 | 56.9 | 34.3 | 20.7 | 27.1 | 16.6 | 43.0±3.2 | 39.2±3.6 | 0 | D-values Post Inhibitor Treatment (compared to uninhibited cells), CsA (CHO K1 cells; [9]): 0.49; D-values Post Inhibitor Treatment (compared to uninhibited cells), FTC (CHO K1 cells; [9]): 0.06; D-values Post Inhibitor Treatment (compared to uninhibited cells), MK-571 (CHO K1 cells; [9]): 0.91; D-values Post Inhibitor Treatment (compared to uninhibited cells), Verapamil (CHO K1 cells; [9]): 0.1; MAF value, Ver (HCT-8 cells): 21.2±3.2; MAF value, CsA (HepG2 cells; [1]): 50.4±1.3; MAF value, MK571 (HepG2 cells; [2]): 52.2±3.8; MAF value, Nov (HepG2 cells; [3]): 7.0±1.7; MAF value, Ver (HepG2 cells; [4]): 12.8±1.3
CCN1C(=CC=Cc2oc3ccccc3[n+]2CC)Oc2ccccc21.[I-] [DiOC2(3), 3,3′-diethyloxacarbocyanine iodide] | 0 | 0 | 0 |  |  |  |  | 0.98 | 0.11 | 0.13 | 0.98 | 0 | 2.4 | 86.6 | 0.9 | 1.0 | 4.2 | 24.7±0.9 | 9.8±1.2 | 0 | MAF value, CsA (HCT-15 cells; [1]): 71.0±5.0; MAF value, MK571 (HCT-15 cells; [2]): 4.3±2.2; MAF value, Nov (HCT-15 cells; [3]): 0; MAF value, Ver (HCT-15 cells; [4]): 69.3±4.3; D-values Post Inhibitor Treatment (compared to uninhibited cells), CsA (CHO K1 cells; [10]): 0.94; D-values Post Inhibitor Treatment (compared to uninhibited cells), FTC (CHO K1 cells; [10]): 0.16; D-values Post Inhibitor Treatment (compared to uninhibited cells), MK-571 (CHO K1 cells; [10]): 0.13; D-values Post Inhibitor Treatment (compared to uninhibited cells), Verapamil (CHO K1 cells; [10]): 0.96; MAF value, Ver (HCT-8 cells): 19.1±3.7

From PMC3142157, “Sensitive and Specific Fluorescent Probes for Functional Analysis of the Three Major Types of Mammalian ABC Transporters” (PLoS ONE, 2011)
